“And” between values parts separate entries of the source, which are not always exact repeats. Equal entries are not always repeated.
Tests used:
avidin = target: T1, avidin (Gallus gallus, UniProt P02701); experiment: HABA assay: displacement of HABA from avidin; type: binding
T1 construct: purchased Pierce Chemical Company
Experimental: In order to determine whether CBZ can bind to avidin, a solution of 10 mg/L CBZ dissolved in methanol was used in a HABA assay (Pierce Chemical Company, Pittsburgh, Pa.). When [2-(4′-hydroxyazobenzene) benzoic acid (HABA) is added in excess of avidin (Pierce Chemical Company, Pittsburgh, Pa.), an absorption at 500 nm is observed and a change in color occurs from yellow to red. This absorption is decreased proportionately when biotin is added since biotin displaces the HABA dye due to its higher affinity for avidin. The assay can be performed in a single cuvette by noting the A500 of the avidin-HABA solution before and after addition of the biotin-containing sample; the change in absorbance can then be related to the amount of biotin in the sample by using the extinction coefficient of the complex.
This change in absorbance is equivalent to 0.17 μmoles biotin-competing capacity of CBZ/ml reaction mixture. This amount was present according to a calculation equation described by the manufacturer.

[1] = humans, serum concentration; cited from earlier work
[2] = Serum CBZ concentration in CBZ-treated rats (competitive avidin assay vs HPLC with UV detection); type: in vivo; conditions: rat serum, 3.75 g CBZ/kg diet for 68 days, Serum #1-#3
Experimental: Biotinylated bovine serum albumin (BSA) was synthesized by mixing 50 mL of 10 g/L BSA in ice-cold 0.1 mol/L NaHCO3 (pH 7.5) with 5 mL of a 12 g/L N-hydroxysuccinimide ester (NHS-biotin) in dimethyl sulfoxide overnight at 4° C. The mixture was dialyzed for 48 h with gentle stirring at 4° C.
A flat bottom 96-well microtiter plate (Nunc Maxisorp, Fisher Scientific, Pittsburgh, Pa.) was coated with 200 μL of a 1:2 dilution of biotinylated BSA in coating buffer (50 mmol/L bicarbonate, pH 9.0) and incubated at 4° C. for at least 1 h (up to 48 h).
A 10 g/L stock of CBZ was made by dissolving CBZ in methanol and then this was diluted 1:2 in Hepes buffer (0.1 mol/L Hepes, 1 mol/L NaCl, pH 7.0) to make a concentration of 5 g/L. 5 μL of this stock was diluted in 295 μL serum (collected immediately after a rat had been killed by exsanguination and whole blood was allowed to clot 10 min before centrifugation at 10,000× g for 10 min, and serum recovered). […]
The coated flat bottom plate was washed three times with 0.05% (v/v) tween-20 and before the wells dried out, 100 μL of the contents of the U-bottom plate were added to the flat bottom plate and incubated for 45 min—up to 4 h. […] After 45 min, 50 μL of 2 mol/L H2SO4 was added to the wells and the absorbance was measured at 490-650 nm in a plate reader spectrophotometer (Molecular Devices, Sunnyvale, Calif.). […]

T1 sequence (P02701 25-152): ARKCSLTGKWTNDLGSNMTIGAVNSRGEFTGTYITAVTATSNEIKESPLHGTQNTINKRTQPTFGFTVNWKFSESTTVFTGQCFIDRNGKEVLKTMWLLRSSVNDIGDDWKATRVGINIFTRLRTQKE

change in absorbance at 500 nm (avidin; 10 mg/L CBZ in methanol added to avidin-HABA solution): 0.5633 | biotin-competing capacity of CBZ/ml reaction mixture (avidin; calculated from change in absorbance by manufacturer's equation, 10 mg/L CBZ): 0.17 µmol | serum CBZ concentration, HPLC ([2]; HPLC with UV detection): 4.7 mg/L and 3.3 mg/L | serum CBZ concentration, Competitive Assay ([2]; avidin-HRP/biotinylated BSA competitive assay): 4.8 mg/L and 3.8 mg/L and 3.0 mg/L
Compound: NC(=O)N1c2ccccc2C=Cc2ccccc21 [CBZ, 5-carbamoyl-5H-dibenz[b,f]azepine]
binding to avidin relative to HABA (avidin; HABA displacement): binds more tightly to avidin than does HABA | therapeutic range [1]: 4 to 12 mg/L
